# Measurements reported in ChEMBL document CHEMBL3817755, “Design, synthesis and biological evaluation of indazolepyrimidine based derivatives as anticancer agents with anti-angiogenic and antiproliferative activities” (Medchemcomm, 2016).
# Experiments:
# Type in all cases: functional
# [1] = Growth inhibition of human HL-60(TB) cells at 10 uM after 48 hrs by SRB assay; settings: HL-60, 48 h, read-out: GI
# KM12 = assay: Growth inhibition of human KM12 cells at 10 uM after 48 hrs by SRB assay; settings: KM12, 48 h, read-out: GI
# SN12C = assay: Growth inhibition of human SN12C cells at 10 uM after 48 hrs by SRB assay; settings: read-out: GI
# NCI-H522 = assay: Growth inhibition of human NCI-H522 cells at 10 uM after 48 hrs by SRB assay; settings: NCI-H522, 48 h, read-out: GI
# [2] = Growth inhibition of human OVCAR4 cells at 10 uM after 48 hrs by SRB assay; settings: OVCAR-4, 48 h, read-out: GI
# MCF7 = assay: Growth inhibition of human MCF7 cells at 10 uM after 48 hrs by SRB assay; settings: MCF7, 48 h, read-out: GI
# 786-0 = assay: Growth inhibition of human 786-0 cells at 10 uM after 48 hrs by SRB assay; settings: 786-0, 48 h, read-out: GI
# MDA-MB-435 = assay: Growth inhibition of human MDA-MB-435 cells at 10 uM after 48 hrs by SRB assay; settings: MDA-MB-435, 48 h, read-out: GI
# A549 = assay: Growth inhibition of human A549/ATCC cells at 10 uM after 48 hrs by SRB assay; settings: A549, 48 h, read-out: GI
# SK-MEL-2 = assay: Growth inhibition of human SK-MEL-2 cells at 10 uM after 48 hrs by SRB assay; settings: SK-MEL-2, 48 h, read-out: GI
# NCI-H460 = assay: Growth inhibition of human NCI-H460 cells at 10 uM after 48 hrs by SRB assay; settings: NCI-H460, 48 h, read-out: GI
# [3] = Growth inhibition of human NCI-ADR-RES cells at 10 uM after 48 hrs by SRB assay; settings: read-out: GI
# HT-29 = assay: Growth inhibition of human HT-29 cells at 10 uM after 48 hrs by SRB assay; settings: HT-29, 48 h, read-out: GI
# MDA-MB-231 = assay: Growth inhibition of human MDA-MB-231 cells at 10 uM after 48 hrs by SRB assay; settings: MDA-MB-231, 48 h, read-out: GI
# [4] = Growth inhibition of human HOP92 cells at 10 uM after 48 hrs by SRB assay; settings: HOP-92, 48 h, read-out: GI
# M14 = assay: Growth inhibition of human M14 cells at 10 uM after 48 hrs by SRB assay; settings: M14, 48 h, read-out: GI
# [5] = Growth inhibition of human UACC62 cells at 10 uM after 48 hrs by SRB assay; settings: UACC-62, 48 h, read-out: GI
# EKVX = assay: Growth inhibition of human EKVX cells at 10 uM after 48 hrs by SRB assay; settings: read-out: GI
# [6] = Growth inhibition of human SKOV3 cells at 10 uM after 48 hrs by SRB assay; settings: SK-OV-3, 48 h, read-out: GI
# [7] = Growth inhibition of human OVCAR3 cells at 10 uM after 48 hrs by SRB assay; settings: OVCAR-3, 48 h, read-out: GI
# U-251 = assay: Growth inhibition of human U251 cells at 10 uM after 48 hrs by SRB assay; settings: U-251, 48 h, read-out: GI
# [8] = Growth inhibition of human IGROV1 cells at 10 uM after 48 hrs by SRB assay; settings: IGROV-1, 48 h, read-out: GI
# T47D = assay: Growth inhibition of human T47D cells at 10 uM after 48 hrs by SRB assay; settings: read-out: GI
# K562 = assay: Growth inhibition of human K562 cells at 10 uM after 48 hrs by SRB assay; settings: K562, 48 h, read-out: GI
# MDA-MB-468 = assay: Growth inhibition of human MDA-MB-468 cells at 10 uM after 48 hrs by SRB assay; settings: MDA-MB-468, 48 h, read-out: GI
# [9] = Growth inhibition of human LOXIMVI cells at 10 uM after 48 hrs by SRB assay; settings: LOX IMVI, read-out: GI
# [10] = Growth inhibition of human SF295 cells at 10 uM after 48 hrs by SRB assay; settings: SF-295, 48 h, read-out: GI
# [11] = Growth inhibition of human BT549 cells at 10 uM after 48 hrs by SRB assay; settings: BT-549, 48 h, read-out: GI
# [12] = Growth inhibition of human OVCAR5 cells at 10 uM after 48 hrs by SRB assay; settings: OVCAR-5, 48 h, read-out: GI
# [13] = Growth inhibition of human COLO205 cells at 10 uM after 48 hrs by SRB assay; settings: COLO 205, 48 h, read-out: GI
# SR = assay: Growth inhibition of human SR cells at 10 uM after 48 hrs by SRB assay; settings: read-out: GI
# [14] = Growth inhibition of human TK10 cells at 10 uM after 48 hrs by SRB assay; settings: TK-10, 48 h, read-out: GI
# Malme-3M = assay: Growth inhibition of human MALME-3M cells at 10 uM after 48 hrs by SRB assay; settings: read-out: GI
# [15] = Growth inhibition of human Hs 578T cells at 10 uM after 48 hrs by SRB assay; settings: read-out: GI
# [16] = Growth inhibition of human SNB19 cells at 10 uM after 48 hrs by SRB assay; settings: SNB-19, 48 h, read-out: GI
# [17] = Growth inhibition of human Caki1 cells at 10 uM after 48 hrs by SRB assay; settings: CAKI-1, 48 h, read-out: GI
# [18] = Growth inhibition of human DU145 cells at 10 uM after 48 hrs by SRB assay; settings: DU-145, 48 h, read-out: GI
# [19] = Growth inhibition of human HCT116 cells at 10 uM after 48 hrs by SRB assay; settings: HCT-116, 48 h, read-out: GI
# [20] = Growth inhibition of human PC3 cells at 10 uM after 48 hrs by SRB assay; settings: PC-3, 48 h, read-out: GI
# NCI-H322M = assay: Growth inhibition of human NCI-H322M cells at 10 uM after 48 hrs by SRB assay; settings: read-out: GI
# [21] = Growth inhibition of human RXF393 cells at 10 uM after 48 hrs by SRB assay; settings: RXF 393, 48 h, read-out: GI
# SK-MEL-5 = assay: Growth inhibition of human SK-MEL-5 cells at 10 uM after 48 hrs by SRB assay; settings: SK-MEL-5, 48 h, read-out: GI
# CCRF-CEM = assay: Growth inhibition of human CCRF-CEM cells at 10 uM after 48 hrs by SRB assay; settings: read-out: GI
compound,measurement,setting,value
COc1cccc(Nc2nccc(Nc3ccc4[nH]ncc4c3)n2)c1,inhibition of growth at 10 µM,[1],162%
same,inhibition of growth at 10 µM,KM12,144%
same,inhibition of growth at 10 µM,SN12C,80%
same,inhibition of growth at 10 µM,NCI-H522,168%
same,inhibition of growth at 10 µM,[2],160%
same,inhibition of growth at 10 µM,MCF7,151%
same,inhibition of growth at 10 µM,786-0,112%
same,inhibition of growth at 10 µM,MDA-MB-435,178%
same,inhibition of growth at 10 µM,A549,168%
same,inhibition of growth at 10 µM,SK-MEL-2,137%
same,inhibition of growth at 10 µM,NCI-H460,168%
same,inhibition of growth at 10 µM,[3],111%
same,inhibition of growth at 10 µM,HT-29,158%
same,inhibition of growth at 10 µM,MDA-MB-231,85%
same,inhibition of growth at 10 µM,[4],111%
same,inhibition of growth at 10 µM,M14,174%
same,inhibition of growth at 10 µM,[5],157%
same,inhibition of growth at 10 µM,EKVX,66%
same,inhibition of growth at 10 µM,[6],85%
same,inhibition of growth at 10 µM,[7],161%
same,inhibition of growth at 10 µM,U-251,194%
same,inhibition of growth at 10 µM,[8],124%
same,inhibition of growth at 10 µM,T47D,152%
same,inhibition of growth at 10 µM,K562,110%
same,inhibition of growth at 10 µM,MDA-MB-468,145%
same,inhibition of growth at 10 µM,[9],167%
same,inhibition of growth at 10 µM,[10],84%
same,inhibition of growth at 10 µM,[11],116%
same,inhibition of growth at 10 µM,[12],67%
same,inhibition of growth at 10 µM,[13],188%
same,inhibition of growth at 10 µM,SR,111%
same,inhibition of growth at 10 µM,[14],178%
same,inhibition of growth at 10 µM,Malme-3M,149%
same,inhibition of growth at 10 µM,[15],76%
same,inhibition of growth at 10 µM,[16],76%
same,inhibition of growth at 10 µM,[17],131%
same,inhibition of growth at 10 µM,[18],159%
same,inhibition of growth at 10 µM,[19],187%
same,inhibition of growth at 10 µM,[20],181%
same,inhibition of growth at 10 µM,NCI-H322M,93%
same,inhibition of growth at 10 µM,[21],82%
same,inhibition of growth at 10 µM,SK-MEL-5,184%
Clc1ccc(Nc2nccc(Nc3ccc4[nH]ncc4c3)n2)cc1,inhibition of growth at 10 µM,[1],48%
same,inhibition of growth at 10 µM,KM12,91%
same,inhibition of growth at 10 µM,SN12C,48%
same,inhibition of growth at 10 µM,NCI-H522,79%
same,inhibition of growth at 10 µM,[2],51%
same,inhibition of growth at 10 µM,MCF7,75%
same,inhibition of growth at 10 µM,786-0,43%
same,inhibition of growth at 10 µM,MDA-MB-435,44%
same,inhibition of growth at 10 µM,A549,50%
same,inhibition of growth at 10 µM,NCI-H460,59%
same,inhibition of growth at 10 µM,[3],61%
same,inhibition of growth at 10 µM,HT-29,83%
same,inhibition of growth at 10 µM,MDA-MB-231,31%
same,inhibition of growth at 10 µM,[4],101%
same,inhibition of growth at 10 µM,M14,56%
same,inhibition of growth at 10 µM,[5],66%
same,inhibition of growth at 10 µM,EKVX,33%
same,inhibition of growth at 10 µM,[6],12%
same,inhibition of growth at 10 µM,[7],48%
same,inhibition of growth at 10 µM,U-251,41%
same,inhibition of growth at 10 µM,[8],53%
same,inhibition of growth at 10 µM,T47D,70%
same,inhibition of growth at 10 µM,K562,108%
same,inhibition of growth at 10 µM,MDA-MB-468,66%
same,inhibition of growth at 10 µM,[9],55%
same,inhibition of growth at 10 µM,[10],29%
same,inhibition of growth at 10 µM,[11],47%
same,inhibition of growth at 10 µM,[12],35%
same,inhibition of growth at 10 µM,[13],58%
same,inhibition of growth at 10 µM,SR,97%
same,inhibition of growth at 10 µM,[14],38%
same,inhibition of growth at 10 µM,Malme-3M,12%
same,inhibition of growth at 10 µM,[15],38%
same,inhibition of growth at 10 µM,[16],22%
same,inhibition of growth at 10 µM,[17],48%
same,inhibition of growth at 10 µM,[18],50%
same,inhibition of growth at 10 µM,[19],61%
same,inhibition of growth at 10 µM,CCRF-CEM,95%
same,inhibition of growth at 10 µM,[20],75%
same,inhibition of growth at 10 µM,NCI-H322M,25%
same,inhibition of growth at 10 µM,[21],65%
same,inhibition of growth at 10 µM,SK-MEL-5,74%
